This note sets out measurements from US5594001A, “Polycyclic systems, and derivatives thereof, as neurotransmitter release enhancers useful in the treatment of cognitive disorders” (The DuPont Merck Pharmaceutical Company, priority 1994, dated 1997).

Experiment [1] relates to stimulus-induced acetylcholine release, slices from the parietal cortex. Put plainly: Neurotransmitter (ACh) release assay, rat cortex slices, K+ stimulated. The following applies: for activation at 10 µM: Table II, % increase of drug-induced ACh release; for EC50: Table III. It counts as cell-based, rat (male Wistar). On the procedure:
The neurotransmitter release activities of the compounds of this invention were determined using standard biochemical assay procedures for example, the neurotransmitter release assay as described below.
Neurotransmitter release assay.
The neurotransmitter (Ach) release activities of the compounds of this invention were determined by the assay as described by Nickolson, et al., Drug Development Research, (1990) 19: 285-300, a modification of the procedure described by Mulder, et al., Brain Res., (1974) 70: 372.
Male Wistar rats (Charies River) weighing 175-200 grams were used. Rats were decapitated and brains were dissected immediately. Slices (0.3 mm thick) from the parietal cortex were prepared (approximately 100 mg wet weight) and were incubated in 10 ml KrebsRinger medium (KR) containing NaCl (116 mM), KCl (3 mM), CaCl2 (1.3 mM), MgCl2 (1.2 mM), KH2 PO4 (1.2 mM), Na2 SO4 (1.2 mM), NaHCO3 (25.0 mM), and glucose (11.0 mM), to which was added 10 uCi ^3 H-choline (specific activity approximately 35 Ci/mM; NEN) and […] unlabeled choline to give a final concentration of one micromole. The brain preparations were incubated for 30 min. at 37° C. under a steady flow of 95% O2 /5% CO2. Under these conditions, part of the radioactive choline taken up by the preparation was converted into radioactive acetylcholine (ACh) by the cholinergic nerve endings stored in synaptic vesicles, and released upon depolarization by high potassium ion (K+) containing media.
After labelling of the ACh stores, the slices were washed three times with non-radioactive KR medium and transferred to a superfusion apparatus to measure the drug effects on ACh release. The superfusion apparatus consisted of 10 thermostated glass columns of 5 mm diameter that were provided with GF/F glass fiber filters to support the slices (approximately 10 mg tissue/column). Superfusion was carried out in KR-medium (0.3 ml/min.) containing […] hemicholine-3 (HC-3). The HC-3 prevents the reuptake of choline formed during the superfusion from phospholipids and released ACh, which would be converted into unlabeled ACh and released in preference to the preformed labeled ACh. The medium was delivered by a 25-channel peristaltic pump (Ismatec by Brinkman) and warmed to 37° C. in a thermostated stainless steel coil before entering the superfusion column. Each column was provided with a 4-way slider valve (Beckmann instruments) which allowed rapid change of low to high K+/KR-medium, and with two 10-channel 3-way valves that were used to change from drug-free to drug-containing low and high K+/KR-medium. After 15 min. of washout of non-specifically bound radioactivity, collection of 4 min. fractions was initiated. After three 4 min. collections, the original medium was changed to a KR-medium in which the KCl concentration had been increased to 25 mM (high K+ medium) (S1). Depolarization-induced stimulation of release by high K+/KR-medium lasted for 4 min. Drug free low and high K+/KR-media were then substituted by drug- and vehicle-containing low- and high-K+/KR-medium, and superfusion was continued for three 4 min. collections with low K+/KR-medium, one 4 min. collection with high K+/KR-medium (s2), and two 4 min. collections with low K+/KR-medium.
Drug was added to the media by 100-fold dilutions of appropriate concentrations of the drug (in 0.9% saline) with either low- or high-K+/KR-medium. For comparative purposes, linopirdine was also run.
All superfusion fractions were collected in liquid scintillation counting vials. After superfusion, the slices were removed from the superfusion columns and extracted with 1.0 ml of 0.1N HCl. Liquiscint (NEN) counting fluid (12 ml) was added to superfusion fractions and extracts, and the samples were counted in a Packard Tricarb Liquid Scintillation Counter. No corrections were made for quenching. […]

Experiment [2] deals with ACh level in the rat hippocampus. Put plainly: Microdialysis, ACh levels in the rat hippocampus in vivo. The arrangement: species or system rat (male Wistar). The conditions noted are these: for AUC, Area % under the curve / Peak, maximal % increase of ACh release over baseline / time of Peak after administration / Duration, minutes of release above statistical significance: Table IV. On the procedure:
Male Wistar Rats are anaesthetized and guide cannulas stereotaxically implanted into the brain at the level of the dorsal hippocampus. Following a minimum recovery period of 72 h, dialysis probes (0.5 mm diameter, 4.0 mm long, from BAS) are inserted into the hippocampus through the guide cannulas. The probes are perfused at a rate of 2 μl/min with artificial cerebrospinal fluid containing 100 μM physostigmine sulfate (a cholinesterase inhibitor). Rats are allowed to acclimate for 2 hours prior to sample collection. Dialysate samples are collected every 20 min (40 μl) and immediately injected onto a high performance liquid chromatograph equipped for electrochemical detection (HPLC-EC) of acetylcholine (ACh). Following collection of 3 baseline samples, drugs or vehicle control are administered in 0.01 ml/g body weight and dialysate samples are collected for an additional 3 h. The ACh peak heights of the 3 samples prior to drug administration are averaged together to determine baseline ACh levels. ACh peak heights post drug administration are measured and used to determine percent change over baseline ACh levels. At the end of experiments, probe placement is verified histologically.
ACh is separated by reverse phase chromatography (Hamilton PRP-1 column 150×4.5 mm) and converted to acetate, betaine and hydrogen peroxide on an immobilized enzyme reactor column (BAS). Hydrogen peroxide is then detected electrochemically. Mobile phase for the chromatography consists of 0.2M Na2 HPO4, 0.1 mM EDTA, 0.5 mM SOS, 0.9 mM TMA.Cl, with pH adjusted to 8.0 with phosphoric acid and […] Kathon CG (ESA) added to each liter of mobile phase to retard bacterial growth.
FIGS. 1 and 2 show the effects of fluorine substitution to the pendant groups of the anthrone and azafluorene core series on the ability of compounds to increase the level of ACh in the rat hippocampus in vivo. All compounds were tested at 5 mg/kg except Ex. No 64 which was administered at 1 mg/kg. […] This was observed even though the compound was administered by a route (i.p.) which should lead to greater bioavailability than the oral route. Example 68 of the present invention, the bis-fluorinated analog of Example 611 or U.S. Pat. No. 5,173,489, on the other hand, led to a 2-fold increase in ACh levels which was maintained for over 1 hour (FIG. 1). The anthrone compound Ex. No. 440 of U.S. Pat. No. 5,173,489, at 5 mg/kg, led to a peak ACh level of 72% over baseline (FIG. 2). Ex. No. 64 of the present invention, which is the bis-fluoro analog of Ex. No. 440 of U.S. Pat. No. 5,173,489, at 1 mg/kg, led to a delayed increase in ACh levels reaching a peak of over 100% above baseline (FIG. 2). In contrast to the observed effects of Example 440 of U.S. Pat. No. 5,173,489, the increase in ACh level after administration of Example 64 of the present invention was maintained for the entire duration of testing (3 hours).

Setting [3] is: 5 mg/kg, vehicle methocel, NSP = no significant points.

Structures can show the parent of a compound that is named as a salt. Bounds are passed on as bounds.

`CC(=O)OCCCCC1(Cc2ccncc2)c2ccccc2-c2sccc21` (centres unmarked) [Example 5, 4-(4-Pyridinylmethyl)-4H-indeno[1,2-B]thiophene-4-butanol Acetate (Ester) Hydrochloride] came in with an activation at 10 µM in experiment [1] of 224%.

As usually defined, the EC50 is the concentration at which the effect is half-maximal. High values mean weaker potency, low ones greater potency. In experiment [1], `COc1ccc2c(c1)C(=O)c1ccc(OC)cc1C2(Cc1ccnc(F)c1)Cc1ccnc(F)c1` [Example 74, 10,10-Bis((2-fluoro-4-pyridinyl)methyl)-2,6-dimethoxy-9(10H)-anthracenone] showed an EC50 of 880 nM.

As for `Fc1cc(CC2(Cc3ccncc3)c3ccccc3Oc3ncccc32)ccn1` (centres unmarked) [Example 70, 9-((2-Fluoro-4-pyridinyl)methyl)-9-(4-pyridinylmethyl)-4-azaxanthene], the half-maximal effective concentration (EC50) in experiment [1] is 350 nM.

With `CCOC(=O)CC1(Cc2ccncc2)c2ccccc2-c2sccc21` (centres unmarked) [Example 4, 4-(4-Pyridinylmethyl)-4H-indeno[1,2-B]thiophene-4-acetic acid, Ethyl Ester Hydrochloride], the activation at 10 µM in experiment [1] was found to be 146%.

Regarding `Fc1cc(CC2(Cc3ccncc3)c3cccnc3-c3sccc32)ccn1` (centres unmarked) [Example 11, 4-[(2-Fluoro-4-pyridinyl)methyl]-4-(4-pyridinylmethyl)-4H-thieno[3',2':4,5]cyclopenta[1,2-B]pyridine], the activation at 10 µM in experiment [1] was 757%.

In turn, `c1ccc2c(c1)-c1sccc1C2Cc1ccncc1` (centres unmarked) [Example 1, 4-(4-Pyridinylmethyl)-4H-indeno[1,2-B]thiophene] yielded an activation at 10 µM in experiment [1] of 92%.

As for `c1cnc2c(c1)C(Cc1ccncc1)c1ccsc1-2` (centres unmarked) [Example 10, 4-(4-Pyridinylmethyl)-4H-thieno[2',3':3,4]cyclopenta[1,2-B]pyridine], the activation at 10 µM in experiment [1] was 118%.

As for `C#Cc1ccc2c(c1)C(Cc1ccnc(F)c1)(Cc1ccnc(F)c1)c1cccnc1-2` [Example 79, 5,5-Bis((2-fluoro-4-pyridinyl)methyl)-7-(ethynyl)-5H-indeno-[1,2-b]pyridine], the EC50 in experiment [1] amounted to 2650 nM.

Consider `NC(=O)CCCCC1(Cc2ccncc2)c2ccccc2-c2sccc21` (centres unmarked) [Example 6, 4-(4-Pyridinylmethyl)-4H-indeno[1,2-B]thiophene-4-pentanamide Hydrochloride Hydrate], for which, in experiment [1], the activation at 10 µM was determined as 163%.

In the case of `O=C1c2ccccc2C(Cc2ccncc2)(Cc2ccnc(F)c2)c2ccccc21` [Example 66], a half-maximal response in experiment [1] (EC50) required 310 nM.

Take `c1ccc(-n2cc3c(n2)-n2cccc2C3(Cc2ccncc2)Cc2ccncc2)cc1` [Example 15, 2,4-Dihydro-2-phenyl-4,4-bis(4-pyridinylmethyl)pyrazolo[4,3-B]pyrrolizine]: the activation at 10 µM in experiment [1] was 348%.

Consider `N#CCCCCC1(Cc2ccncc2)c2ccccc2-c2sccc21` (centres unmarked) [Example 3, 4-(4-Pyridinylmethyl)-4H-indeno[1,2-B]thiophene-4-pentanenitrile Hydrobromide Hydrate], for which the activation at 10 µM in experiment [1] was determined as 145%.

`[O-][S+]1c2ccccc2C(Cc2ccnc(F)c2)(Cc2ccnc(F)c2)c2ccccc21` [Example 108, 5,5-Bis(2-fluoropyridin-4-ylmethyl)thioxanthene-10-oxide]: the “AUC, Area % under the curve” value was determined as 184 ± 124% in experiment [2] (1 mg/kg, vehicle methocel) and 799 ± 202% in experiment [2] (5 mg/kg, vehicle methocel). Also, the “Peak, maximal % increase of ACh release over baseline” value (“Peak, maximal % increase” for short) turned out to be 34 ± 19% in experiment [2] (1 mg/kg, vehicle methocel) and 108 ± 80% in experiment [2] (5 mg/kg, vehicle methocel). The “time of Peak after administration” value turned out to be 100 min in experiment [2] (1 mg/kg, vehicle methocel) and 80 min in experiment [2] (5 mg/kg, vehicle methocel). Also, the “Duration, minutes of release above statistical significance” value in experiment [2] (1 mg/kg, vehicle methocel, NSP = no significant points) is on record as “NSP”; in experiment [2] (setting [3]), “>”.

On to `O=S1(=O)c2ccccc2C(Cc2ccnc(F)c2)(Cc2ccnc(F)c2)c2ccccc21` [Example 107, 5,5-Bis-(2-fluoropyridin-4-ylmethyl)thioxanthene-10,10-dioxide], for which, in experiment [2] (5 mg/kg, vehicle methocel), the “AUC, Area % under the curve” value was 281 ± 226%; the “Peak, maximal % increase” value is given as 41 ± 10%; the “time of Peak after administration” value is 20 min. In addition, the “Duration, minutes of release above statistical significance” value in experiment [2] (setting [3]) was “NSP”.

As to `c1ccc2c(c1)-c1ncccc1C2(Cc1ccncc1)Cc1ccncc1` [Ex. No 611 of U.S. Pat. No. 5,173,489, reference compound], the “effect on ACh levels over what was observed after vehicle administration” value in experiment [2] (5 mg/kg i.p., FIG. 1) was “no effect on ACh levels”.

Take `Oc1ccc2c(c1)C(Cc1ccnc(F)c1)(Cc1ccnc(F)c1)c1ccccc1-2` [Example 61, 9,9-Bis((2-fluoro-4-pyridinyl)methyl)-2-hydroxy-9H-fluorene]: in experiment [2] (5 mg/kg, vehicle methocel), the “AUC, Area % under the curve” value is on record as 95 ± 61%; the “Peak, maximal % increase” value is reported as 48 ± 22%; the “time of Peak after administration” value is 20 min. Moreover, in experiment [2] (setting [3]), the “Duration, minutes of release above statistical significance” value worked out at 40 min.

On to `O=C1c2ccccc2C(Cc2ccncc2)(Cc2ccncc2)c2ccccc21` [Ex 440 U.S. Pat. No. 5,173,489, reference compound], for which the “peak ACh level over baseline” value in experiment [2] (5 mg/kg oral, FIG. 2) came to 72%. For the same compound, in experiment [2] (5 mg/kg, vehicle water), the “AUC, Area % under the curve” value came to 44 ± 34%; the “Peak, maximal % increase” value was 18 ± 15%; the “time of Peak after administration” value came out at 20 min. The “Duration, minutes of release above statistical significance” value in experiment [2] (5 mg/kg, vehicle water, NSP = no significant points) is on record as “NSP”. In experiment [2] (10 mg/kg, vehicle water), the “AUC, Area % under the curve” value was 705 ± 112%; the “Duration, minutes of release above statistical significance” value was 100 min; the “Peak, maximal % increase” value is 127 ± 31%; the “time of Peak after administration” value was 60 min.
